# Test results published in patent publication US11034650B2, “Compounds useful for treating a Mannheimia haemolytica or Histophilus somni infection” (Intervet Inc., priority 2016, dated 2021).
# Key:
# Format in all cases: cell-based
# [1] = test system: Pasteurella multocida PM 6391 (ATCC 43137, reference strain); assay: MIC, broth-microdilution (CLSI VET01-A4), strain PM 6391; details: Pasteurella multocida strain PM 6391, broth-microdilution; unit assumed
# Outline: (§1)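 Compounds were serially diluted twofold in microdilution trays. Growth was judged by eye, and the MIC was the lowest concentration showing no turbidity. Results were interpreted per CLSI VET01-S3.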
# [2] = test system: Mannheimia haemolytica MH 12587 (1071, BRD field isolate, macrolide-resistance: erm+, E+); assay: MIC, broth-microdilution (CLSI VET01-A4), strain MH 12587; details: Mannheimia haemolytica strain MH 12587, broth-microdilution; unit assumed
# Outline: as §1
# [3] = test system: Pasteurella multocida PM 6267 (P 2225 (L386), reference strain, mouse infection strain); assay: MIC, broth-microdilution (CLSI VET01-A4), strain PM 6267; details: Pasteurella multocida strain PM 6267, broth-microdilution; unit assumed
# Outline: as §1
# [4] = test system: Mannheimia haemolytica MH 10720 (154, BRD field isolate); assay: MIC, broth-microdilution (CLSI VET01-A4), strain MH 10720; details: Mannheimia haemolytica strain MH 10720, broth-microdilution; unit assumed
# Outline: as §1
# [5] = test system: Mannheimia haemolytica MH 13093 (XB0472-6014.1, BRD field isolate); assay: MIC, broth-microdilution (CLSI VET01-A4), strain MH 13093; details: Mannheimia haemolytica strain MH 13093, broth-microdilution; unit assumed
# Outline: as §1
# [6] = test system: Mannheimia haemolytica MH 6357 (M7/2, reference strain, cattle infection strain); assay: MIC, broth-microdilution (CLSI VET01-A4), strain MH 6357; details: Mannheimia haemolytica strain MH 6357, broth-microdilution; unit assumed
# Outline: as §1
# [7] = test system: Mannheimia haemolytica MH 13065 (XB0446-6003.9, BRD field isolate); assay: MIC, broth-microdilution (CLSI VET01-A4), strain MH 13065; details: Mannheimia haemolytica strain MH 13065, broth-microdilution; unit assumed
# Outline: as §1
# [8] = test system: Pasteurella multocida PM 12080 (IV102277-0093, BRD field isolate); assay: MIC, broth-microdilution (CLSI VET01-A4), strain PM 12080; details: Pasteurella multocida strain PM 12080, broth-microdilution; unit assumed
# Outline: as §1
# [9] = test system: Pasteurella multocida PM 10775 (080130003051, BRD field isolate); assay: MIC, broth-microdilution (CLSI VET01-A4), strain PM 10775; details: Pasteurella multocida strain PM 10775, broth-microdilution; unit assumed
# Outline: as §1
# [10] = test system: Mannheimia haemolytica MH 6374 (ATCC 33396, reference strain); assay: MIC, broth-microdilution (CLSI VET01-A4), strain MH 6374; details: Mannheimia haemolytica strain MH 6374, broth-microdilution; unit assumed
# Outline: as §1
Compound,MIC PM 6391 [1] [µg/mL],MIC PM 6267 [3] [µg/mL],MIC PM 12080 [8] [µg/mL],MIC PM 10775 [9] [µg/mL],MIC MH 12587 [2] [µg/mL],MIC MH 10720 [4] [µg/mL],MIC MH 13093 [5] [µg/mL],MIC MH 6357 [6] [µg/mL],MIC MH 13065 [7] [µg/mL],MIC MH 6374 [10] [µg/mL]
CC(C)(C(NC(=O)c1ccc(C#Cc2ccc(CNCc3ccc(F)cc3)cc2)cc1)C(=O)NO)[N+](=O)[O-] (stereo not drawn) [Compound 284],0.4,0.8,≤ 0.1,≤ 0.1,1.6,≤ 0.1,0.8,0.4,0.2,0.8
CC(C)[C@H](NC(=O)c1ccc(C#Cc2ccc(CNCc3ccccn3)cc2)cc1)C(=O)NO [Compound 169],0.4,≤ 0.1,0.4,≤ 0.1,1.6,0.2,0.8,0.4,0.8,0.8
CC(C)([C@H](NC(=O)c1ccc(C#Cc2ccc(CNCc3ccncc3)nc2)cc1)C(=O)NO)S(C)(=O)=O [Compound 371],0.2,0.2,0.2,≤ 0.1,3.1,0.8,3.1,1.6,1.6,1.6
CON=C(C)[C@H](NC(=O)c1ccc(C#Cc2ccc(CNCc3ccccn3)cc2)cc1)C(=O)NO [Compound 390],≤ 0.1,3.1,0.2,0.4,0.2,0.8,0.8,0.4,0.8,1.6
CC(C)([C@H](NC(=O)c1ccc(C#Cc2ccc(CNCC(F)(F)F)nc2)cc1)C(=O)NO)S(C)(=O)=O [Compound 355],0.2,0.8,≤ 0.1,≤ 0.1,1.6,≤ 0.1,1.6,0.8,0.8,1.6
CC(C)[C@H](NC(=O)c1ccc(C#Cc2ccc(CN3CCCC3)cc2)cc1)C(=O)NO [Compound 212],0.4,0.2,0.2,≤ 0.1,12.5,0.8,12.5,3.1,3.1,6.3
O=C(N[C@@H](CO)C(=O)NO)c1ccc(C#Cc2ccc(CNCc3ccccn3)cc2)cc1 [Compound 158],0.8,0.4,0.8,≤ 0.1,6.3,0.8,6.3,1.6,6.3,3.1
CC(C)[C@H](NC(=O)c1ccc(C#Cc2ccc(CNCc3ccco3)cc2)cc1)C(=O)NO [Compound 170],0.4,≤ 0.1,0.2,≤ 0.1,0.4,≤ 0.1,0.4,0.2,0.4,0.4
CC[C@H](C)[C@H](NC(=O)c1ccc(C#Cc2ccc(CN3CCCOCC3)cc2)cc1)C(=O)NO [Compound 186],0.4,≤ 0.1,0.2,≤ 0.1,6.3,1.6,3.1,1.6,3.1,6.3
"O=C(N[C@@H](CO)C(=O)NO)c1ccc(C#Cc2ccc([N+](=O)[O-])cc2)cc1 [Compound 375, N-[(1S)-2-(hydroxyamino)-1-(hydroxymethyl)-2-oxo-ethyl]-4-[2-(4-nitrophenyl)ethynyl]benzamide]",1.6,0.8,3.1,≤ 0.1,6.3,0.8,6.3,1.6,3.1,3.1
CC(=O)[C@H](NC(=O)c1ccc(C#Cc2ccc(CNCc3ccc(C)cc3)cc2)cc1)C(=O)NO [Compound 412],≤ 0.1,6.3,0.2,0.4,0.4,1.6,1.6,1.6,1.6,1.6

# Second part, led by results:
MIC PM 6391 [1] [µg/mL],MIC PM 6267 [3] [µg/mL],MIC PM 12080 [8] [µg/mL],MIC PM 10775 [9] [µg/mL],Compound,MIC MH 12587 [2] [µg/mL],MIC MH 10720 [4] [µg/mL],MIC MH 13093 [5] [µg/mL],MIC MH 6357 [6] [µg/mL],MIC MH 13065 [7] [µg/mL],MIC MH 6374 [10] [µg/mL]
0.4,0.4,≤ 0.1,≤ 0.1,CSC(C)(C)[C@H](NC(=O)c1ccc(C#Cc2ccc(CNCc3nccs3)s2)cc1)C(=O)NO [Compound 365],3.1,0.2,1.6,0.8,1.6,0.8
≤ 0.1,0.8,≤ 0.1,≤ 0.1,COc1ccc(CNCc2ccc(C#Cc3ccc(C(=O)N[C@H](C(=O)NO)C(C)(C)O)cc3)cn2)cc1 [Compound 328],1.6,≤ 0.1,0.8,0.8,0.8,0.8
0.4,0.4,0.2,≤ 0.1,CSC(C)(C)[C@H](NC(=O)c1ccc(C#Cc2ccc(CNCc3nccs3)nc2)cc1)C(=O)NO [Compound 368],1.6,0.4,1.6,0.8,0.8,0.8
6.3,1.6,3.1,0.2,CCCNCc1ccc(C#Cc2ccc(C(=O)N[C@@H](CO)C(=O)NO)cc2)cc1 [Compound 152],12.5,3.1,12.5,3.1,12.5,25
3.1,1.6,3.1,0.2,CC[C@H](C)[C@H](NC(=O)c1ccc(C#Cc2ccc(CNC(C)C)cc2)cc1)C(=O)NO [Compound 141],12.5,1.6,12.5,6.3,6.3,12.5
≤ 0.1,≤ 0.1,≤ 0.1,≤ 0.1,CC(C)([C@H](NC(=O)c1ccc(C#Cc2ccc(CNCc3cccs3)cc2)cc1)C(=O)NO)S(C)(=O)=O [Compound 271],0.8,≤ 0.1,0.4,0.4,0.2,0.2
3.1,0.8,1.6,≤ 0.1,O=C(N[C@@H](CO)C(=O)NO)c1ccc(C#Cc2ccc(CNCC3CCCO3)cc2)cc1 (stereo partly drawn) [Compound 162],12.5,3.1,12.5,6.3,12.5,12.5
0.4,≤ 0.1,0.4,≤ 0.1,CSC(C)(C)[C@H](NC(=O)c1ccc(C#Cc2ccc(CNCC3CCCO3)cc2)cc1)C(=O)NO (stereo partly drawn) [Compound 253],3.1,0.8,3.1,3.1,1.6,3.1
0.4,0.8,0.4,≤ 0.1,COc1ccc(CNCc2ccc(C#Cc3ccc(C(=O)N[C@H](C(=O)NO)C(C)(C)SC)cc3)s2)cc1 [Compound 305],3.1,0.2,1.6,0.8,0.8,0.8
1.6,0.4,0.8,≤ 0.1,CC[C@H](C)[C@H](NC(=O)c1ccc(C#Cc2ccc(CNCC3CCCO3)cc2)cc1)C(=O)NO (stereo partly drawn) [Compound 183],1.6,0.8,3.1,1.6,3.1,3.1
